Test results as given in patent publication EP2931723B1, “NEW BICYCLIC COMPOUNDS AND THEIR USE AS ANTIBACTERIAL AGENTS AND -LACTAMASE INHIBITORS” (Fedora Pharmaceuticals Inc., priority 2012, dated 2014).

How the values were obtained:
Assay in all cases: MIC, antibacterial and synergistic activity
Assay type in all cases: cell-based
E. cloacae JMI 36 = E. cloacae JMI 36 (P99)
K. pneumo JMI 2697 = K. pneumo JMI 2697 (IMP-4 (Cpase))
Experimental: (§1) In the Tables 10 - 12, compounds herein disclosed were tested in combination with various antibiotics against metallo β-lactamase producing bacteria.

K. pneumo JMI 2693 = K. pneumo JMI 2693 (NDM-1 (Cpase))
Experimental: as §1

E. coli JMI 2692 = E. coli JMI 2692 (NDM-1, TEM-1, CTX-M-15)
Experimental: as §1

E. coli JMI 10767 = E. coli JMI 10767 (Wt)
E.coli JMI 4103 = E.coli JMI 4103 (KPC-2, Tem-1, CMY-Type)
K. pneumo JMI 2673 = K. pneumo JMI 2673 (CTX-M14 (ESBL))
How it was run: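 Compounds were evaluated together with various antibiotics to measure synergistic antibacterial activity. For each combination, the minimum inhibitory concentration of the antibiotic was recorded while the inhibitor was present at a constant 4 µg/mL.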

P. aerug JMI 2686 [1] = conditions: P. aerug JMI 2686 (KPC-2 (Cpase))
How it was run: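 This antibacterial synergy assay measured the minimum inhibitory concentration of antibiotics combined with the disclosed inhibitor compounds. The inhibitor was held at 4 µg/mL throughout. The aim was to see whether the added compound strengthened the antibiotic's action against the tested bacteria.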

K. pneumo JMI 2699 = K. pneumo JMI 2699 (VIM-1, CTX-M3)
How it was run: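 Metallo β-lactamase-producing isolates were exposed to antibiotics plus a constant inhibitor level (4 µg/mL), and growth inhibition gave the MIC.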

E. coli JMI 10768 [2] = conditions: E. coli JMI 10768 (CTX-M15 (Weak ESBL))
Experimental: In the Tables 10 - 12, compounds herein disclosed were tested in combination with various antibiotics against metallo β-lactamase producing bacteria. Table 3: Synergy of the inhibitor Ex. 1 (4 µg/mL) in combination with antibiotics

K. pneumo JMI 2674 = K. pneumo JMI 2674 (CTX-M15 (ESBL)); substance alone
K. pneumo JMI 2681 = K. pneumo JMI 2681 (Oxa-48 (Cpase))
E. coli JMI 10770 = conditions: Escherichia coli, JMI10770; E. coli JMI 10770 (CTX-M15 (Hyper ESBL)); substance alone
E. coli ATCC 25922 = E. coli ATCC 25922 (Wt)
K. pneumo JMI 4088 = K. pneumo JMI 4088 (KPC-3 (Cpase)); substance alone
E. coli JMI 11103 = test system: E. coli JMI 11103
E. coli JMI 10768 [3] = conditions: E. coli JMI 10768 (CTX-M15 (Weak ESBL)); Meropenem + inhibitor at 4 µg/mL
P. aerug JMI 149 = P. aerug JMI 149 (Bla+++D+)
K.pneumo JMI 4109 = K.pneumo JMI 4109 (SHV-1, SHV-12); substance alone
K. pneumo JMI 4106 = K. pneumo JMI 4106 (KPC-3, TEM-1, SHV-12, SHV-141)
A. baumanii JMI 2659 = A. baumanii JMI 2659 (Ges-14 (Cpase))
P. aerug JMI 2686 [4] = conditions: P. aerug JMI 2686 (KPC-2 (Cpase)); substance alone
[5] = Aztreonam + inhibitor at 4 µg/mL
[6] = Ceftazidime + inhibitor at 4 µg/mL
[7] = Meropenem + inhibitor at 4 µg/mL

`CCC(=O)NNC(=O)[C@@H]1CC[C@@H]2CN1C(=O)N2OS(=O)(=O)O` [Ex. 8, (2S,5R)-7-oxo-N'-propanoyl-6-(sulfooxy)-1,6-diazabicyclo[3.2.1]octane-2-carbohydrazide] was tested, and the “MIC Aztreonam + inhibitor” value (E. cloacae JMI 36; [5]) was 0.125 µg/mL, the “MIC Ceftazidime + inhibitor” value (E. cloacae JMI 36; [6]) was 0.5 µg/mL and the “MIC Meropenem + inhibitor” value (E. cloacae JMI 36; [7]) was 0.25 µg/mL. The MIC (E. cloacae JMI 36; Enterobacter cloacae, JMI36, substance alone, read-out: MIC) was over 16 µg/mL, the “MIC Aztreonam + inhibitor” value (K. pneumo JMI 2697; [5]) was at most 0.062 µg/mL and the “MIC Ceftazidime + inhibitor” value (K. pneumo JMI 2697; [6]) was 16 µg/mL. The “MIC Meropenem + inhibitor” value (K. pneumo JMI 2697; [7]) was 2 µg/mL, the MIC (K. pneumo JMI 2697; substance alone) was over 16 µg/mL and the “MIC Aztreonam + inhibitor” value (K. pneumo JMI 2693; [5]) was 2 µg/mL. For the same compound, the “MIC Ceftazidime + inhibitor” value (K. pneumo JMI 2693; [6]) was 8 µg/mL, the “MIC Meropenem + inhibitor” value (K. pneumo JMI 2693; [7]) was 0.125 µg/mL and the MIC (K. pneumo JMI 2693; substance alone) was over 16 µg/mL. The “MIC Aztreonam + inhibitor” value (E. coli JMI 2692; [5]) was at most 0.062 µg/mL, the “MIC Ceftazidime + inhibitor” value (E. coli JMI 2692; [6]) was at most 0.25 µg/mL and the “MIC Meropenem + inhibitor” value (E. coli JMI 2692; [7]) was 2 µg/mL. The MIC (E. coli JMI 2692; Escherichia coli, JMI2692, substance alone, read-out: MIC) was 4 µg/mL, the “MIC Meropenem + inhibitor” value (E. coli JMI 10767; [7]) was at most 0.0312 µg/mL and the MIC (E. coli JMI 10767; Escherichia coli, JMI10767, substance alone) was over 16 µg/mL. The “MIC Aztreonam + inhibitor” value (E.coli JMI 4103; [5]) was at most 0.062 µg/mL, the “MIC Ceftazidime + inhibitor” value (E.coli JMI 4103; [6]) was at most 0.25 µg/mL and the “MIC Meropenem + inhibitor” value (E.coli JMI 4103; [7]) was at most 0.0312 µg/mL. The MIC (E.coli JMI 4103; Escherichia coli, JMI4103, substance alone) was 4 µg/mL, the “MIC Aztreonam + inhibitor” value (K. pneumo JMI 2673; [5]) was at most 0.062 µg/mL and the “MIC Ceftazidime + inhibitor” value (K. pneumo JMI 2673; [6]) was at most 0.25 µg/mL. The “MIC Meropenem + inhibitor” value (K. pneumo JMI 2673; [7]) was at most 0.0312 µg/mL, the “MIC Aztreonam + inhibitor” value (P. aerug JMI 2686 [1]; [5]) was over 4 µg/mL and the “MIC Ceftazidime + inhibitor” value (P. aerug JMI 2686 [1]; [6]) was over 16 µg/mL. For the same compound, the “MIC Meropenem + inhibitor” value (P. aerug JMI 2686 [1]; [7]) was over 2 µg/mL, the “MIC Aztreonam + inhibitor” value (K. pneumo JMI 2699; [5]) was at most 0.062 µg/mL and the “MIC Ceftazidime + inhibitor” value (K. pneumo JMI 2699; [6]) was at most 0.25 µg/mL. The “MIC Meropenem + inhibitor” value (K. pneumo JMI 2699; [7]) was 0.125 µg/mL, the MIC (K. pneumo JMI 2699; substance alone, read-out: MIC) was over 16 µg/mL and the “MIC Aztreonam + inhibitor” value (E. coli JMI 10768 [2]; [5]) was at most 0.062 µg/mL. For the same compound, the “MIC Ceftazidime + inhibitor” value (E. coli JMI 10768 [2]; [6]) was at most 0.25 µg/mL, the MIC (E. coli JMI 10768 [2]; Escherichia coli, JMI10768, substance alone) was over 16 µg/mL and the MIC (K. pneumo JMI 2674) was over 16 µg/mL. The “MIC Aztreonam + inhibitor” value (K. pneumo JMI 2681; [5]) was 0.125 µg/mL, the “MIC Ceftazidime + inhibitor” value (K. pneumo JMI 2681; [6]) was at most 0.25 µg/mL and the “MIC Meropenem + inhibitor” value (K. pneumo JMI 2681; [7]) was 0.5 µg/mL. For the same compound, the MIC (K. pneumo JMI 2681; substance alone, read-out: MIC) was over 16 µg/mL, the MIC (E. coli JMI 10770) was over 16 µg/mL and the “MIC Aztreonam + inhibitor” value (E. coli ATCC 25922; [5]) was at most 0.0625 µg/mL. For the same compound, the “MIC Ceftazidime + inhibitor” value (E. coli ATCC 25922; [6]) was at most 0.25 µg/mL, the “MIC Meropenem + inhibitor” value (E. coli ATCC 25922; [7]) was at most 0.0312 µg/mL and the MIC (E. coli ATCC 25922; Escherichia coli, ATCC25922, substance alone) was 16 µg/mL. For the same compound, the MIC (K. pneumo JMI 4088) was over 16 µg/mL, the “MIC Aztreonam + inhibitor” value (E. coli JMI 11103; E. coli JMI 11103 (CTX-M15 (Intermediate ESBL)), Aztreonam + inhibitor at 4 µg/mL) was at most 0.062 µg/mL and the “MIC Ceftazidime + inhibitor” value (E. coli JMI 11103; E. coli JMI 11103 (CTX-M15 (Intermediate ESBL)), Ceftazidime + inhibitor at 4 µg/mL) was at most 0.25 µg/mL. For the same compound, the “MIC Meropenem + inhibitor” value (E. coli JMI 11103; E. coli JMI 11103 (CTX-M15 (Intermediate ESBL)), Meropenem + inhibitor at 4 µg/mL) was at most 0.0312 µg/mL, the MIC (E. coli JMI 11103; Escherichia coli, JMI11103, E. coli JMI 11103 (CTX-M15 (Intermediate ESBL)), substance alone) was over 16 µg/mL and the “MIC Meropenem + inhibitor” value (E. coli JMI 10768 [3]) was at most 0.0312 µg/mL. The “MIC Aztreonam + inhibitor” value (P. aerug JMI 149; [5]) was over 4 µg/mL, the “MIC Ceftazidime + inhibitor” value (P. aerug JMI 149; [6]) was over 16 µg/mL and the “MIC Meropenem + inhibitor” value (P. aerug JMI 149; [7]) was 0.5 µg/mL. The MIC (P. aerug JMI 149; substance alone, read-out: MIC) was over 16 µg/mL, the MIC (K.pneumo JMI 4109) was 4 µg/mL and the “MIC Aztreonam + inhibitor” value (K. pneumo JMI 4106; [5]) was at most 0.062 µg/mL. The “MIC Ceftazidime + inhibitor” value (K. pneumo JMI 4106; [6]) was at most 0.25 µg/mL, the “MIC Meropenem + inhibitor” value (K. pneumo JMI 4106; [7]) was at most 0.0312 µg/mL and the MIC (K. pneumo JMI 4106; substance alone, read-out: MIC) was over 16 µg/mL. For the same compound, the “MIC Aztreonam + inhibitor” value (A. baumanii JMI 2659; [5]) was over 4 µg/mL, the “MIC Ceftazidime + inhibitor” value (A. baumanii JMI 2659; [6]) was over 16 µg/mL and the “MIC Meropenem + inhibitor” value (A. baumanii JMI 2659; [7]) was over 2 µg/mL. For the same compound, the MIC (A. baumanii JMI 2659; Acinetobacter baumannii, JMI2659, substance alone, read-out: MIC) was over 16 µg/mL and the MIC (P. aerug JMI 2686 [4]) was over 16 µg/mL.
